Experimental data reported in patent US20130137573A1, “HERBICIDAL COMPOSITIONS COMPRISING, AND METHODS OF USE OF, HERBICIDALLY ACTIVE PYRANDIONES” (priority 2009, published 2013).

Key:
Type in all cases: in vivo
IR-64 rice [1] = experiment: Biological Example 2 (Test 109): damage to flooded transplanted rice; conditions: for IR-64 rice % herbicidal damage: EC050, into flood water, 14 days after application
Protocol: (§1) Rice seeds, variety IR-64, were sown in seed trays, after 7 days they were transplanted as 3 groups of 2 plants, into pots containing a standard sandy loam soil saturated with water replicating swampy conditions. These were grown on for 9 days in a glasshouse bay (30/20° C. day/night; 18/6 hours light/dark; 75% humidity). Approx 10-20 seeds of Echinochloa crus-galli were sown into pots 13 days prior to application, in the same conditions as the rice. All pots were flooded to 2-3 cm water depth the day prior to application. Growth stages at time of application were: Rice: 2-3 leaves, ECHCG: 2-3 leaves.
The test solutions were prepared by mixing the appropriate aliquots of the test substance (here, compound A-13 as the EC050 Formulation Example 1 disclosed herein) in de-ionised water to give the desired treatment concentration.
(§2) Application was made by pipetting the required amount of the test solution gently into the flood water of the appropriate pot.
(§3) The test plants were grown on in the same glasshouse conditions, and watered twice daily keeping the flood water at a depth of 2-3 cm.
(§4) A visual assessment of the % herbicidal damage was made 14 days after application (0=no damage to plants, 100=total kill).

IR-64 rice [2] = experiment: Biological Example 4 (Test 110): wet seeded rice (WSR) method, IR-64 rice damage; conditions: for WSR Rice IR-64 % herbicidal damage: EC050 + 0.2% Adsee, foliar spray, 14 days after application
Description: (§5) Rice seeds varieties IR-64 and Arborio, Echinochloa crus-galli (ECHCG), and Leptochloa chinensis (LEFCH) were sown in seed trays containing a standard sandy loam soil saturated with water replicating swampy conditions. They were sown at intervals to achieve plants at the following growth stages at time of application: IR-64 and Arborio rice: from 3 leaves on the main stem to tillering; ECHCG: at two different leaf stages: 0-0.5 leaf and 2-3 leaf; LEFCH: 3 leaf. Glasshouse bay conditions were 30/20° C. day/night; 18/6 hours light/dark; 75% humidity.
(§6) The test solutions were prepared by mixing the appropriate aliquots of the test substance (here, compound A-13 as EC050 Formulation Example 1) and adjuvant (0.2% Adsee as adjuvant) in de-ionised water to give the desired treatment concentration.
(§7) Application was as a foliar spray, made using a tracksprayer. 3 days after application the trays were flooded to 2-3 cm water depth, and maintained at this level for the duration of the test.
(§8) No. of repetitions: 1 test only.
as §4

[3] = tested on: Echinochloa crus-galli (ECHCG); experiment: Biological Example 1 (Test 125): visual herbicidal damage to flooded ECHCG; conditions: 14 DAA
Protocol: Rice seeds, variety IR-64 (an indica type of rice), were sown in seed trays. After 7 days the resulting plants were transplanted as 3 groups of 2 plants, into pots containing a standard sandy loam soil saturated with water replicating swampy conditions. These were grown on for a further 9 days in a glasshouse bay (30/20° C. day/night; 18/6 hours light/dark; 75% humidity). Leptochloa chinensis (LEFCH) and Echinochloa crus-galli (ECHCG) were sown as 2 separate groups of approx 10-20 seeds into pots 13 days prior to application of the test substances, in the same glasshouse conditions as the rice. Therefore, each pot of weeds contained a group of LEFCH and a separate group of ECHCG. All pots of rice and all pots of weeds were flooded to 2-3 cm water depth the day prior to application of the test substances. Growth stages at time of application were as follows: Rice: from 2 leaves on the main stem up to tillering; ECHCG: from 2 leaves on the main stem up to tillering; LEFCH: 2-3 leaves.
Test solutions were prepared by mixing the appropriate aliquots of the test substances in deionised water to give the desired treatment concentration. Most of the test substances were used as formulated products. Specifically, compound A-13 was applied as the EC050 formulation disclosed in Formulation Example 1 herein (EC=emulsifiable concentrate). Reference compound A-4 was applied as the EC050 formulation disclosed in Reference Formulation Example 2 herein. Pyroxasulfone (a comparator co-herbicide) was applied as the SC050 formulation disclosed in Reference Formulation Example 6 herein (SC=Suspension concentrate). Imazosulfuron (a comparator co-herbicide) was applied as a GR0.25 formulation (GR=granule).
The test substances which were pure active ingredient (e.g. propyrisulfuron & fenoxasulfone & compound A-16) (labelled as ‘Technical’ in the following results table), were prepared by dissolving in 10.56% Emulsogen EL™ (castor oil ethoxylate, CAS Registry number 61791-12-6), 42.22% N-methylpyrrolidone and 42.22% dipropylene glycol mono-ethyl ether to give a stock solution containing 5% of the test substance and 95% of (Emulsogen EL™, N-methylpyrrolidone and dipropylene glycol mono-ethyl ether).
Application of the test substances was made by pipetting the required amount of the test solution or the test formulation gently into the flood water of the appropriate pot.
The test plants were then grown on in the same glasshouse conditions, and watered twice daily keeping the flood water at a depth of 2-3 cm.
A visual assessment of the % herbicidal damage was made 7 & 14 days after application […], and the results are presented herein as % visual herbicidal damage where 0=no damage to plants and 100=total kill.

Arborio rice = experiment: Biological Example 4 (Test 110): wet seeded rice (WSR) method, Arborio rice damage; conditions: EC050 + 0.2% Adsee, foliar spray, 14 days after application
Description: as §5, §6, §7, §8, §4

Koshihikari rice = experiment: Biological Example 4 (Test 110): transplanted (TPR) method, rice damage; conditions: for Transplanted Rice Koshihikari % herbicidal damage: 14 days after application
Protocol: as §1, with “variety Koshihikari,” for “variety IR-64,”, “bay 30/20°” for “bay (30/20°”, “ECHCG: 4” for “ECHCG: 2-3”, “leaves. The test solutions were prepared by mixing the appropriate aliquots of the test substance (here, compound A-13 as EC050 Formulation Example 1) in de-ionised water to give the desired treatment concentration.” for “leaves.”
as §2, §3, §8, §4

[4] = tested on: Echinochloa crus-galli (ECHCG); experiment: Biological Example 4 (Test 110): transplanted (TPR) method, ECHCG damage; conditions: EC050 into flood water, ECHCG 4 leaves, 14 days after application
Protocol: as §1, with “variety Koshihikari,” for “variety IR-64,”, “bay 30/20°” for “bay (30/20°”, “ECHCG: 4” for “ECHCG: 2-3”, “leaves. The test solutions were prepared by mixing the appropriate aliquots of the test substance (here, compound A-13 as EC050 Formulation Example 1) in de-ionised water to give the desired treatment concentration.” for “leaves.”
as §2, §3, §8, §4

## CC1(C)OC(C)(C)C(O)=C(c2cc(-c3ccc(Cl)cc3F)ccc2C2CC2)C1=O [compound A-13, 4-(4′-Chloro-4-cyclopropyl-2′-fluorobiphenyl-3-yl)-2,2,6,6-tetramethylpyran-3,5-dione]
IR-64 rice [1]; 120 g/ha
  IR-64 rice % herbicidal damage: 5%
IR-64 rice [1]; 240 g/ha
  IR-64 rice % herbicidal damage: 18%
IR-64 rice [1]; 360 g/ha
  IR-64 rice % herbicidal damage: 5%
IR-64 rice [1]; Biological Example 2, 120 g/ha
  selectivity margin in rice (IR-64 rice vs ECHCG): good selectivity margin
IR-64 rice [2]; 8 g/ha
  WSR Rice IR-64 % herbicidal damage: 0%
IR-64 rice [2]; 60 g/ha
  WSR Rice IR-64 % herbicidal damage: 0%
IR-64 rice [2]; 125 g/ha
  WSR Rice IR-64 % herbicidal damage: 5%
IR-64 rice [2]; 500 g/ha
  WSR Rice IR-64 % herbicidal damage: 35%
IR-64 rice [2]; Biological Example 4, wet seeded rice, 60 and 125 g/ha
  selectivity margin between rice and ECHCG: good selectivity margin
[3]; 60 g/ha applied alone (EC050)
  ECHCG control: 35%
[3]; 90 g/ha applied alone (EC050)
  ECHCG control: 55%
[3]; 120 g/ha applied alone (EC050)
  ECHCG control: 55%
Arborio rice; 8 g/ha
  WSR Rice Arborio % herbicidal damage: 0%
Arborio rice; 60 g/ha
  WSR Rice Arborio % herbicidal damage: 0%
Arborio rice; 125 g/ha
  WSR Rice Arborio % herbicidal damage: 0%
Arborio rice; 500 g/ha
  WSR Rice Arborio % herbicidal damage: 60%
Koshihikari rice; 60 g/ha, EC050, into flood water
  Transplanted Rice Koshihikari % herbicidal damage: 15%
Koshihikari rice; 125 g/ha, EC050 into flood water
  Transplanted Rice Koshihikari % herbicidal damage: 20%
Koshihikari rice; 500 g/ha, EC050 into flood water
  Transplanted Rice Koshihikari % herbicidal damage: 60%
Koshihikari rice; Biological Example 4, transplanted rice, 125 g/ha
  selectivity margin between rice and ECHCG: certain selectivity margin
[4]; 30 g/ha
  Transplanted ECHCG % herbicidal damage: 0%
[4]; 60 g/ha
  Transplanted ECHCG % herbicidal damage: 20%
[4]; 125 g/ha
  Transplanted ECHCG % herbicidal damage: 75%
[4]; 500 g/ha
  Transplanted ECHCG % herbicidal damage: 99%
